From patent US9012493B2, “1-heterodiene derivative and pest control agent” (Nippon Soda Co., Ltd., priority 2009, dated 2015)

Experiments:
Format in all cases: in vivo
[1] = test system: Twospotted Spider Mite (Tetranychus Urticae Koch); assay: Efficacy test against twospotted spider mite, spray on kidney bean plant; conditions: 125 ppm, wettable powder diluted with water, sprayed, female adults with resistance to an organophosphorus agent on kidney bean, after 3 days
Procedure: The wettable powder obtained according to Formulation of Formulation Example 1 was diluted with water so as to control the concentration of the compound to 125 ppm. Seventeen female adults of twospotted spider mite with resistance to an organophosphorus agent were inoculated on a first true leaf of a kidney bean plant (approximately 7 to 10 days after sprouting) sown in a 3 sun/size pot (9 cm). The diluted solution was sprayed. The pot was placed in a temperature-controlled room at a temperature of 25° C. and a humidity of 65%. After 3 days, the adulticidal rate was examined. The test was repeated twice.

[2] = test system: Cotton Aphid (Aphis Gossypii); assay: Efficacy test against cotton aphid, spray on cucumber plant; conditions: 125 ppm, emulsifiable concentrate diluted with water, sprayed over cucumber plant with nymphs, after 5 days, 25° C.
Procedure: (§1) Test Examples of the pest control agent thus obtained according to the present invention are shown below. In respective Test Examples, the insecticidal rate (%) was determined by the following calculation equation. Insecticidal rate (%)=(number of dead pests/number of released pests)×100
The emulsifiable concentrate obtained according to Formulation of Formulation Example 2 was diluted with water so as to control the concentration of the compound to 125 ppm. Adults of cotton aphids were inoculated to a cucumber plant (approximately 10 days after sprouting) sown in a 3 sun/size pot (9 cm). After 1 day, adult aphids were removed and the diluted solution was sprayed over the cucumber plant on which delivered nymphs are parasitic. The pot was placed in a temperature-controlled room at a temperature of 25° C. and a humidity of 65%. After 5 days, life and death were examined and the insecticidal rate was determined. The test was repeated twice.

[3] = test system: Sweetpotato Whitefly (Bemisia Tabaci); assay: Efficacy test against sweetpotato whitefly, sprayed tomato leaf; conditions: 125 ppm, emulsifiable concentrate diluted with water, adults (type B), after 2 days, 25° C.
Procedure: as §1
The emulsifiable concentrate obtained according to Formulation of Formulation Example 2 was diluted with water so as to control the concentration of the compound to 125 ppm. The diluted solution was sprayed over a tomato leaf obtained by cutting and then air-dried. Using absorbent cotton, the leaf was fixed to a flask so that a front surface of the leaf faces upward. Seven pairs of adults of sweetpotato whitefly (type B) were inoculated in this container, and the container was placed in a temperature-controlled room at a temperature of 25° C. and a humidity of 65%. After 2 days, life and death were examined and the insecticidal rate was determined. The test was repeated twice.

[4] = test system: Rice Armyworm (Mythimna Separata); assay: Efficacy test against rice armyworm, corn leaf dip; conditions: 125 ppm, emulsifiable concentrate diluted with water, corn leaves immersed, second instar larvae, after 5 days, 25° C.
Procedure: as §1
The emulsifiable concentrate obtained according to Formulation of Formulation Example 2 was diluted with water so as to control the concentration of the compound to 125 ppm. Leaves of corn were immersed in this diluted solution for 30 seconds and then air-dried. The leaves were put in a petri dish on which a filter paper is laid, and then five second instar larvae of rice armyworm were inoculated. After covering the petri dish with a glass lid, the petri dish was placed in a temperature-controlled room at a temperature of 25° C. and a humidity of 65%. After 5 days, life and death were examined and the insecticidal rate was determined. The test was repeated twice.

C=C1SC(=Nc2ccc(C)cc2)C(=CSc2cccc(F)c2)CC1(C)C (mixture of isomers) [Compound 2-84]
100%: adulticidal rate [1] | insecticidal rate [2] | insecticidal rate [3] | insecticidal rate [4]

C=C1SC(=Nc2ccc(C)cc2)C(=CSc2ccccc2F)CC1(C)C (mixture of isomers) [Compound 2-85]
100%: adulticidal rate [1] | insecticidal rate [2] | insecticidal rate [3] | insecticidal rate [4]

C=C1SC(=Nc2ccc(C)cc2)C(=CSc2ccc(C)cc2)CC1(C)C (mixture of isomers) [Compound 2-86]
100%: adulticidal rate [1] | insecticidal rate [2] | insecticidal rate [3] | insecticidal rate [4]

C=C1SC(=Nc2ccc(C)cc2)C(=CSc2ccc(Cl)cc2)CC1(C)C (mixture of isomers) [Compound 2-87]
100%: adulticidal rate [1] | insecticidal rate [2] | insecticidal rate [3] | insecticidal rate [4]

C=C1SC(=Nc2ccc(C)cc2)C(=CSc2cccc3ccccc23)CC1(C)C (mixture of isomers) [Compound 2-89]
100%: adulticidal rate [1] | insecticidal rate [2] | insecticidal rate [3] | insecticidal rate [4]

CC(C)=C1CCC(=CSc2ccccc2)C(=Nc2ccc(C)cc2)S1 (mixture of isomers) [Compound 6-1]
100%: adulticidal rate [1] | insecticidal rate [2] | insecticidal rate [3] | insecticidal rate [4]

C=C1SC(=Nc2ccc(C)cc2)C(=CSc2ccccc2)CC1c1ccccc1 (racemic) [Compound 2-15]
100%: adulticidal rate [1] | insecticidal rate [2] | insecticidal rate [3] | insecticidal rate [4]

CC(C)=C1CCC(=C\Sc2ccccc2)/C(=N/c2ccc(Cl)cc2)S1 [Compound 2-2, (4-chloro-phenyl)-{6-isopropylidene-3-[1-phenylsulfanyl-(E)-methylidene]-tetrahydro-thiopyran-(2Z)-ylidene}-amine]
100%: adulticidal rate [1] | insecticidal rate [2] | insecticidal rate [3] | insecticidal rate [4]

CC/C=C1/CCC(=C\Sc2ccccc2)/C(=N/c2ccc(Cl)cc2)S1 [Compound 2-3]
100%: adulticidal rate [1] | insecticidal rate [2] | insecticidal rate [3] | insecticidal rate [4]

C=C1CCC(=CSc2ccccc2)C(=Nc2ccc(C)cc2)S1 [Compound 2-4]
100%: adulticidal rate [1] | insecticidal rate [2] | insecticidal rate [3] | insecticidal rate [4]

C=C1CCC(=CSc2ccc(F)cc2)C(=Nc2ccc(C)cc2)S1 [Compound 2-6]
100%: adulticidal rate [1] | insecticidal rate [2] | insecticidal rate [3] | insecticidal rate [4]

C=C1SC(=N\c2ccc(C)cc2)/C(=C/Sc2ccccc2)CC1(C)C [Compound 2-11, {5,5-dimethyl-6-methylene-3-[1-phenylsulfanyl-(E)-methylidene]-tetrahydro-thiopyran-(2Z)-ylidene}-p-tolyl-amine]
100%: adulticidal rate [1] | insecticidal rate [2] | insecticidal rate [3] | insecticidal rate [4]

C=C1SC(=Nc2ccc(Cl)cc2)C(=CSc2ccccc2)CC1(C)C [Compound 2-12]
100%: adulticidal rate [1] | insecticidal rate [2] | insecticidal rate [3] | insecticidal rate [4]

C=C1SC(=Nc2ccc(Cl)cc2)C(=CSc2ccc(F)cc2)CC1(C)C [Compound 2-13]
100%: adulticidal rate [1] | insecticidal rate [2] | insecticidal rate [3] | insecticidal rate [4]

C=C1CCC(=CSc2ccccc2)C(=[NH+]c2ccc(C)cc2)S1.F[B-](F)(F)F [Compound 2-14]
100%: adulticidal rate [1] | insecticidal rate [2] | insecticidal rate [3] | insecticidal rate [4]

C=C1SC(=Nc2ccc(C)cc2)C(=CSc2ccccc2)CC12CCCCC2 [Compound 2-17]
100%: adulticidal rate [1] | insecticidal rate [2] | insecticidal rate [3] | insecticidal rate [4]

C=C1SC(=Nc2ccc(C)cc2)C(=CSc2cccc(OC)c2)CC1(C)C [Compound 2-20]
100%: adulticidal rate [1] | insecticidal rate [2] | insecticidal rate [3] | insecticidal rate [4]

C=C1SC(=Nc2ccc(OC)c(C)c2)C(=CSc2ccccc2)CC1(C)C [Compound 2-34]
100%: adulticidal rate [1] | insecticidal rate [2] | insecticidal rate [3] | insecticidal rate [4]

C=C1SC(=Nc2ccc(Cl)c(Cl)c2)C(=CSc2ccccc2)CC1(C)C [Compound 2-35]
100%: adulticidal rate [1] | insecticidal rate [2] | insecticidal rate [3] | insecticidal rate [4]

C=C1SC(=Nc2ccc(OC)cc2)C(=CSc2ccccn2)CC1(C)C [Compound 2-50]
100%: adulticidal rate [1] | insecticidal rate [2] | insecticidal rate [3]

C=C1SC(=Nc2ccc(OC)cc2)C(=CSc2cccs2)CC1(C)C [Compound 2-51]
100%: adulticidal rate [1] | insecticidal rate [2]

C=C1SC(=Nc2ccc(C)cc2)C(=CSc2nccs2)CC1(C)C [Compound 2-73]
100%: adulticidal rate [1] | insecticidal rate [2] | insecticidal rate [4]

C=C1SC(=Nc2ccc(C)cc2)C(=CSc2cccc(C#N)c2)CC1(C)C [Compound 2-106]
100%: adulticidal rate [1] | insecticidal rate [3] | insecticidal rate [4]

C=C1SC(=Nc2ccc(C)cc2)C(=CSc2c(F)cccc2F)CC1(C)C [Compound 2-114]
100%: adulticidal rate [1] | insecticidal rate [3] | insecticidal rate [4]

C=C1SC(=Nc2ccc(C)cc2)C(=CSc2c(C)cccc2C)CC1(C)C [Compound 2-119]
100%: adulticidal rate [1] | insecticidal rate [3] | insecticidal rate [4]

C=C1SC(=Nc2ccc(C)cc2)C(=CSc2ccc(C(C)C)cc2)CC1(C)C [Compound 2-151]
100%: adulticidal rate [1] | insecticidal rate [3] | insecticidal rate [4]
